Measured values taken from PMC6255783, “A biophysical study on the mechanism of interactions of DOX or PTX with α-lactalbumin as a delivery carrier” (Scientific Reports, 2018).

Target: T1, α-Lac (α-lactalbumin) (Bos taurus, UniProt P00711)
T1 construct: gene LALBA; native mature protein from bovine milk, type III, calcium depleted (apo form, EDTA buffer); signal peptide absent
T1 sequence (P00711 20-142): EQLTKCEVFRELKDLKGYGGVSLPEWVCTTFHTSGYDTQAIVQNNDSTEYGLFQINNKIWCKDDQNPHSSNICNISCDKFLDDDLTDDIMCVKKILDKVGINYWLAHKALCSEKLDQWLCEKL
Test: isothermal titration calorimetry
Assay type: binding
Settings: 20 mM Tris pH 7, 25 °C, 3.5 mM EDTA (apo form), unreliable (authors urge care: no clear pre- or post-transition, heat does not level off)
Excerpt: isothermal titration calorimetry on α-Lac (α-lactalbumin)

For CC(=O)O[C@H]1C(=O)[C@@]2(C)[C@H]([C@H](OC(=O)c3ccccc3)[C@]3(O)C[C@H](OC(=O)[C@H](O)[C@@H](NC(=O)c4ccccc4)c4ccccc4)C(C)=C1C3(C)C)[C@]1(OC(C)=O)CO[C@@H]1C[C@@H]2O [PTX, paclitaxel], the “K (M^-1)” value (up to 3% ethanol, n = 1.8) was “(14 ± 4.82) × 10^3 M^-1”.
In the case of COc1cccc2c1C(=O)c1c(O)c3c(c(O)c1C2=O)C[C@@](O)(C(=O)CO)C[C@@H]3O[C@H]1C[C@H](N)[C@H](O)[C@H](C)O1 [DOX, doxorubicin], the “K (M^-1)” value (n = 0.9) is reported as “(6.7 ± 1.61) × 10^3 M^-1”.
